Assay results taken from article PMC3289994 (Archives of Biochemistry and Biophysics, 2012).

Experiments:
[1] = target: T1, StARD1 protein binding domain (residues 63–285) (Homo sapiens, UniProt P49675); test: FastStep SPR equilibrium binding of carotenoids to immobilized StARD1
T1 sequence (P49675 63-285): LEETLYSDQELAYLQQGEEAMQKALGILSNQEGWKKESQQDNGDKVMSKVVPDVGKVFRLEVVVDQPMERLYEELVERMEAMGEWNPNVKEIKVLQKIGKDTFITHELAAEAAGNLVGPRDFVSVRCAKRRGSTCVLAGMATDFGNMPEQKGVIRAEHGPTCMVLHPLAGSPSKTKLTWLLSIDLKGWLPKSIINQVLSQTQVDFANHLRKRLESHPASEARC

β-lactoglobulin (LG) = target: T2, β-lactoglobulin (LG) (Bos taurus, UniProt P02754); test: SPR equilibrium binding of carotenoids to immobilized LG
T2 sequence (P02754 17-178): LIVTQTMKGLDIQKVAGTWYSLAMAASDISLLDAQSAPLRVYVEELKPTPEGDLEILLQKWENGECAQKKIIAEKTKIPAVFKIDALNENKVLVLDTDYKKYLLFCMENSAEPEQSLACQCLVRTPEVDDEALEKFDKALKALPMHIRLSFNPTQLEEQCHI

[2] = target: human serum albumin (HSA) (Homo sapiens, UniProt P02768); test: SPR equilibrium binding of carotenoids to immobilized HSA
Sequence of human serum albumin (HSA) (P02768 25-609): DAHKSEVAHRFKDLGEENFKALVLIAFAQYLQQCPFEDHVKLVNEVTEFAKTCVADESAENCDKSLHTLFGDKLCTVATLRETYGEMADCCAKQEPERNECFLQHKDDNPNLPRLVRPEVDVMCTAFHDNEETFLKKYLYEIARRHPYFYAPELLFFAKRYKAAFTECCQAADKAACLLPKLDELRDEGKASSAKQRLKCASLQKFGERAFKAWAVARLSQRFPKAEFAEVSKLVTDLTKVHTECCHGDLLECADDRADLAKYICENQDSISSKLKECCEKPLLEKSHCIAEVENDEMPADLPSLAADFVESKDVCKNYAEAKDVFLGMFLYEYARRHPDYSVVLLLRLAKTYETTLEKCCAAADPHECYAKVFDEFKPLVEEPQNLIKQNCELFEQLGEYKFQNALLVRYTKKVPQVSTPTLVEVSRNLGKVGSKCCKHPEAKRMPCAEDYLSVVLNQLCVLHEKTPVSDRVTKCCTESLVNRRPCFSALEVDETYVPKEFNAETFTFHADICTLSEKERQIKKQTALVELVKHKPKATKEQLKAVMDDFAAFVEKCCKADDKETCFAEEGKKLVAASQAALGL

| Kd [1] | Kd (β-lactoglobulin (LG)) | Kd [2] | Structure (SMILES) |
| --- | --- | --- | --- |
| 1960 ± 90 nM | 1900 ± 50 nM | 1560 ± 30 nM | CC1=C(/C=C/C(C)=C/C=C/C(C)=C/C=C/C=C(C)/C=C/C=C(C)/C=C/C2=C(C)C(=O)[C@@H](O)CC2(C)C)C(C)(C)C[C@H](O)C1=O [Astaxanthin, (3S, 3′S)-astaxanthin] |
| 1150 ± 60 nM | 2480 ± 80 nM | 1160 ± 40 nM | CC1=C[C@H](O)CC(C)(C)[C@H]1/C=C/C(C)=C/C=C/C(C)=C/C=C/C=C(C)/C=C/C=C(C)/C=C/C1=C(C)C[C@@H](O)CC1(C)C [Lutein, (3R, 3′R, 6′R)-lutein] |
| 1320 ± 90 nM | 2300 ± 20 nM | 1600 ± 50 nM | CC1=C(/C=C/C(C)=C/C=C/C(C)=C/C=C/C=C(C)/C=C/C=C(C)/C=C/C2=C(C)C[C@@H](O)CC2(C)C)C(C)(C)C[C@H](O)C1 [Zeaxanthin, (3R, 3′R)-zeaxanthin] |
| 1790 ± 80 nM | 2400 ± 50 nM | 1530 ± 20 nM | CC1=C(/C=C/C(C)=C/C=C/C(C)=C/C=C/C=C(C)/C=C/C=C(C)/C=C/C2=C(C)CCCC2(C)C)C(C)(C)CCC1 [β-Carotene] |
